Measured values as given in ChEMBL document CHEMBL5291721, “A preclinical secondary pharmacology resource illuminates target-adverse drug reaction associations of marketed drugs” (Nat Commun, 2023).

Tests used:
[1] = biological target: Acetylcholinesterase (Homo sapiens, UniProt P22303); format: functional
[2] = biological target: T1, Alpha-2A adrenergic receptor (Homo sapiens, UniProt P08913)
T1 sequence (P08913 whole entry): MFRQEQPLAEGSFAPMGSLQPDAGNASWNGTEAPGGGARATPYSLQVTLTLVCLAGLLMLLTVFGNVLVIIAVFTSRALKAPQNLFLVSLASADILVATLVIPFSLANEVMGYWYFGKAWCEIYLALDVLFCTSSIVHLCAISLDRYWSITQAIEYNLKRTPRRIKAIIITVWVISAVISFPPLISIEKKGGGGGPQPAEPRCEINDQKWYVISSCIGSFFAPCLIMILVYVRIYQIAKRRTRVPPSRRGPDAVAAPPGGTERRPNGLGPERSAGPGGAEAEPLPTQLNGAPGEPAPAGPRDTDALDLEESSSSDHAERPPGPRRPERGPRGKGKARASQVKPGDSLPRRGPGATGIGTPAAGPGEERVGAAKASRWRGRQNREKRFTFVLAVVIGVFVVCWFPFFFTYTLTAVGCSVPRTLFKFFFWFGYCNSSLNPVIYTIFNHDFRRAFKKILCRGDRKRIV

[3] = biological target: D(1A) dopamine receptor (Homo sapiens, UniProt P21728)
Sequence of D(1A) dopamine receptor (P21728 whole entry): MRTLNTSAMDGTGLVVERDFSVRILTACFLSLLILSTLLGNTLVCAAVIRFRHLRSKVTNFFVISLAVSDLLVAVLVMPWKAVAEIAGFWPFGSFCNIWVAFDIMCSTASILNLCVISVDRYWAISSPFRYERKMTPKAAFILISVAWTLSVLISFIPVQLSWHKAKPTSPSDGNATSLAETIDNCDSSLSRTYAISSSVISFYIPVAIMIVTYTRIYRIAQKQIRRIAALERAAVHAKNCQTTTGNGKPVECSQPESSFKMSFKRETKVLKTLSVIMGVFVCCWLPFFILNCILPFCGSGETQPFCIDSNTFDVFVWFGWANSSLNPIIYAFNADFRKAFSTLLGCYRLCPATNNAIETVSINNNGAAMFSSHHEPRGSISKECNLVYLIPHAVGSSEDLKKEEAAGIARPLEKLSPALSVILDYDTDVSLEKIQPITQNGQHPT

[4] = biological target: D(3) dopamine receptor (Homo sapiens, UniProt P35462)
Sequence of D(3) dopamine receptor (P35462 whole entry): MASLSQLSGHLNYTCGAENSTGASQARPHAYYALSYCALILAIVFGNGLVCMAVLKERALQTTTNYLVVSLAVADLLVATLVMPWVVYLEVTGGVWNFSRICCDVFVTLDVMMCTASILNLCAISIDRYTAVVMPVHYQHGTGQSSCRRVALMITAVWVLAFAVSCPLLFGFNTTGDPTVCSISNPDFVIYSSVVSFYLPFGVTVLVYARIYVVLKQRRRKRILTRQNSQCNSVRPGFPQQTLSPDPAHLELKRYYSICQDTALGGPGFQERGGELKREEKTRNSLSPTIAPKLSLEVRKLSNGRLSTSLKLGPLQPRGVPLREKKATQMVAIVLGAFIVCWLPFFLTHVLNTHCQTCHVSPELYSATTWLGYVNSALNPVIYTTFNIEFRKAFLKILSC

[5] = biological target: Histamine H3 receptor (Homo sapiens, UniProt Q9Y5N1)
Sequence of Histamine H3 receptor (Q9Y5N1 whole entry): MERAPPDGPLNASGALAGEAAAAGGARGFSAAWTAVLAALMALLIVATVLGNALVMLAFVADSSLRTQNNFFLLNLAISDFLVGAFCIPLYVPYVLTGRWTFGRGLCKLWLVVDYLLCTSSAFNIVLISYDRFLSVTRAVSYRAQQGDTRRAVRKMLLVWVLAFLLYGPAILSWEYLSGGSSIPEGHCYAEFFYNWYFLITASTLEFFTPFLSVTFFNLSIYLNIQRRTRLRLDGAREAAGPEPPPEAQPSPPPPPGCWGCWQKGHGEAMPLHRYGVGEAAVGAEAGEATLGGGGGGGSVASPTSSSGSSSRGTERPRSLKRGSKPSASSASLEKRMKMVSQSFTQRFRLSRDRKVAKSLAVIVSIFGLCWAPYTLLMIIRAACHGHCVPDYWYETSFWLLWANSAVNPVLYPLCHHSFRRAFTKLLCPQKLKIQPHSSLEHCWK

[6] = biological target: Mu-type opioid receptor (Homo sapiens, UniProt P35372)
Sequence of Mu-type opioid receptor (P35372 whole entry): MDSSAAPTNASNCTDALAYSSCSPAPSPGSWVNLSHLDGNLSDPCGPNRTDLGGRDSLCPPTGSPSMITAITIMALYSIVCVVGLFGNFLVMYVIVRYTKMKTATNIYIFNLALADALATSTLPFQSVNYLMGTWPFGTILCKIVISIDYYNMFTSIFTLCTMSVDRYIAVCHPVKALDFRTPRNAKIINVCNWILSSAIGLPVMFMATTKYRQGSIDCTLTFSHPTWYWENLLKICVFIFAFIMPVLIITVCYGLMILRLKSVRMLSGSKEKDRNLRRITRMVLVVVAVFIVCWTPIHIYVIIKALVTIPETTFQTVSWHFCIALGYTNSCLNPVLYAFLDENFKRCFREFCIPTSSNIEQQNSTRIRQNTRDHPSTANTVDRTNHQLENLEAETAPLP

[7] = biological target: 3',5'-cyclic-AMP phosphodiesterase 4A (Homo sapiens, UniProt P27815); format: functional
Sequence of 3',5'-cyclic-AMP phosphodiesterase 4A (P27815 whole entry): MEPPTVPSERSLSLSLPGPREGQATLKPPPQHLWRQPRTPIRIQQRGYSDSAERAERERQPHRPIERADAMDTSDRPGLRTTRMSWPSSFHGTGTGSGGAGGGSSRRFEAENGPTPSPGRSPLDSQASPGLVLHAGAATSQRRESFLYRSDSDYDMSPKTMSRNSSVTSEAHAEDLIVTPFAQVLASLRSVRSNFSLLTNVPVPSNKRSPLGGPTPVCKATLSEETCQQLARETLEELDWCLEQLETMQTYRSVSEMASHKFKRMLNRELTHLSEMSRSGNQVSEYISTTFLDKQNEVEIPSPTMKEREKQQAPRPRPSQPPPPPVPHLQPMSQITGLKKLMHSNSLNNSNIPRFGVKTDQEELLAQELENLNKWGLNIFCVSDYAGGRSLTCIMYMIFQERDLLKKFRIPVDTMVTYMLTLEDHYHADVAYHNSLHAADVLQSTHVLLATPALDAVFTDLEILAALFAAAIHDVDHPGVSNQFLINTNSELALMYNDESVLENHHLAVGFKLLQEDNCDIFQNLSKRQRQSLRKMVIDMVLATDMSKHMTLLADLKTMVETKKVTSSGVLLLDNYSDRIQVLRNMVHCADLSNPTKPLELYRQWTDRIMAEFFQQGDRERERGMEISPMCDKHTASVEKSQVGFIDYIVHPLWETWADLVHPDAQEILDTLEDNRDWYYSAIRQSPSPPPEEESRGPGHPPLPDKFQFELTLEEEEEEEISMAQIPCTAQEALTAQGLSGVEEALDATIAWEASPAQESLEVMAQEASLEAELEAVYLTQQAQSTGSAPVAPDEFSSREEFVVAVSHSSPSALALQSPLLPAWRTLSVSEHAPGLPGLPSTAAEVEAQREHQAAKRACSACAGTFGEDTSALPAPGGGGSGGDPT
Further: assay procedure not described here.

Sequence of Acetylcholinesterase (P22303 whole entry): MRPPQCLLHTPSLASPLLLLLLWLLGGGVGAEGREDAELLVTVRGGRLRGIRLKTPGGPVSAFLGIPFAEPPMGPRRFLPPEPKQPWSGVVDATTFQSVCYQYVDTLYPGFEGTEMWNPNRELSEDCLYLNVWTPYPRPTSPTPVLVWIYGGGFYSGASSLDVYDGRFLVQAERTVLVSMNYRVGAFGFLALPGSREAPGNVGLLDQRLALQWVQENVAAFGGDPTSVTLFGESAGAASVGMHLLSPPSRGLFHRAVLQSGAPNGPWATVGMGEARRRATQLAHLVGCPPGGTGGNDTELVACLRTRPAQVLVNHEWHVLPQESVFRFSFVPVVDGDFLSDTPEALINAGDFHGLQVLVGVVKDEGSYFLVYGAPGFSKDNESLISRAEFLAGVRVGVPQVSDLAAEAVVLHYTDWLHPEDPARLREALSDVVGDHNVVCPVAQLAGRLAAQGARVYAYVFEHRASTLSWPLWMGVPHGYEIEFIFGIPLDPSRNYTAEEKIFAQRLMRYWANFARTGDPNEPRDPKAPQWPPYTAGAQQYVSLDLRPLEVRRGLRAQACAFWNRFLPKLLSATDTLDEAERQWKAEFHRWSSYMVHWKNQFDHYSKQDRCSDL

| SMILES | AC50 [1] [µM] | AC50 [2] [µM] | AC50 [3] [µM] | AC50 [4] [µM] | AC50 [5] [µM] | AC50 [6] [µM] | AC50 [7] [µM] |
| --- | --- | --- | --- | --- | --- | --- | --- |
| CCS(=O)(=O)N1CC(CC#N)(n2cc(-c3ncnc4[nH]ccc34)cn2)C1 [BARICITINIB] | > 10 | > 30 | > 30 | > 30 | > 30 | > 30 | > 30 |
| O=C1CN=C(c2ccccc2)c2c(sc3c2CCCC3)N1 [BENTAZEPAM] | > 30 | 23.9 | > 30 | > 30 | > 30 | > 30 | 15.7 |
| O=C(O)CCCN1CCC(O[C@@H](c2ccc(Cl)cc2)c2ccccn2)CC1 [BEPOTASTINE] | > 30 | > 30 | > 30 | > 30 | > 30 | > 30 | > 30 |
| CN(Cc1cc(Br)cc(Br)c1N)C1CCCCC1 [BROMHEXINE] | > 30 | > 30 | > 30 | > 30 | > 30 | > 30 | 26.3 |
| CCCCN(CCCC)CCCOC(=O)c1ccc(N)cc1 [BUTACAINE] | > 30 | > 30 | > 30 | 5.52 | > 30 | > 30 | > 30 |
| CCCC[N+]1(C)[C@@H]2C[C@@H](OC(=O)[C@H](CO)c3ccccc3)C[C@H]1[C@@H]1O[C@@H]12 (some centres undefined) [BUTYLSCOPOLAMINE] | > 30 | > 30 | > 30 | > 30 | > 30 | > 30 | > 30 |
| NCc1ccccc1CC(=O)N[C@@H]1C(=O)N2C(C(=O)O)=C(CSc3nnnn3CC(=O)O)CS[C@H]12 [CEFORANIDE] | > 30 | > 30 | > 30 | > 30 | > 10 | > 30 | > 30 |
| O=C(c1ccc(F)c(F)c1Nc1ccc(I)cc1F)N1CC(O)([C@@H]2CCCCN2)C1 [COBIMETINIB] | > 30 | > 30 | 24.1 | 24.1 | > 30 | 0.271 | > 30 |
| CN1CCN(C(c2ccccc2)c2ccccc2)CC1 [CYCLIZINE] | > 30 | 3.47 | 14.4 | 2.21 | > 30 | 24.9 | > 30 |
| Nc1nc(-n2cc(C(=O)O)c(=O)c3cc(F)c(N4CC(O)C4)c(Cl)c32)c(F)cc1F [DELAFLOXACIN] | > 30 | > 30 | > 30 | > 30 | > 30 | > 30 | > 30 |
| C[C@@H]1C[C@H]2[C@@H]3CCC4=CC(=O)C=C[C@]4(C)[C@@]3(F)[C@@H](O)C[C@]2(C)[C@H]1C(=O)CO [DESOXIMETASONE] | > 30 | > 30 | > 30 | > 30 | > 30 | > 30 | > 30 |
| COc1ccc(-c2cc(=O)c3c(O)cc(O[C@@H]4O[C@H](CO[C@@H]5O[C@@H](C)[C@H](O)[C@@H](O)[C@H]5O)[C@@H](O)[C@H](O)[C@H]4O)cc3o2)cc1O [DIOSMIN] | > 30 | > 30 | > 30 | > 30 | > 30 | > 30 | > 30 |
| CCOc1ccc(/C=C2\NCCc3cc(OCC)c(OCC)cc32)cc1OCC [DROTAVERINE] | 26.1 | 5.83 | > 30 | > 30 | > 30 | > 10 | 1.68 |
| CC1=NN(c2ccccc2)C(=O)C1 [EDARAVONE] | > 30 | > 30 | > 30 | 10.9 | > 30 | > 30 | > 30 |
| CCOC(=O)C(c1c(O)c2ccccc2oc1=O)c1c(O)c2ccccc2oc1=O [ETHYL BISCOUMACETATE] | > 30 | > 30 | > 30 | > 30 | > 30 | > 30 | > 30 |
| Cc1nc(-c2ccc(OCC(C)C)c(C#N)c2)sc1C(=O)O [FEBUXOSTAT] | > 30 | > 30 | > 30 | > 30 | > 30 | > 30 | 29 |
| O=C1NCC2(CCN(CCc3ccccc3)CC2)O1 [FENSPIRIDE] | > 30 | 8.2 | 20.8 | > 30 | > 30 | > 30 | > 30 |
| CC(C)=CCC1C(=O)N(c2ccccc2)N(c2ccccc2)C1=O [FEPRAZONE] | > 30 | > 30 | > 30 | > 30 | > 30 | > 30 | > 30 |
| C[C@@H]1C[C@H]2[C@@H]3C[C@H](F)C4=CC(=O)C=C[C@]4(C)[C@@]3(F)[C@@H](O)C[C@]2(C)[C@@]1(O)C(=O)COC(=O)C(C)(C)C [FLUMETHASONE PIVALATE] | > 30 | > 30 | > 30 | > 30 | > 30 | > 30 | > 30 |
| CC(C)Cc1ccc(C(C)C(=O)NO)cc1 (centres undefined) [IBUPROXAM] | > 30 | > 30 | > 30 | > 30 | > 30 | > 30 | 24.2 |
| CC/C=C\C/C=C\C/C=C\C/C=C\C/C=C\CCCC(=O)O [ICOSAPENT] | > 30 | > 30 | > 30 | > 30 | > 30 | > 30 | > 30 |
| Oc1c(I)cc(I)c2cccnc12 [IODOQUINOL] | > 30 | > 30 | > 30 | > 30 | > 30 | 8.91 | > 30 |
| CCC(Cc1c(I)cc(I)c(N)c1I)C(=O)O (centres undefined) [IOPANOIC ACID] | > 30 | > 30 | > 30 | > 30 | > 30 | > 30 | 12.2 |
| O=C(NC1CCN(CCCCC2(C(=O)NCC(F)(F)F)c3ccccc3-c3ccccc32)CC1)c1ccccc1-c1ccc(C(F)(F)F)cc1 [LOMITAPIDE] | > 30 | 13.2 | 1.49 | 1.76 | > 30 | 4.02 | > 30 |
| CCN(CC)CCNc1ccc(C)c2sc3ccccc3c(=O)c12 [LUCANTHONE] | > 30 | 5.65 | 6.04 | 0.91 | 10.5 | 11.8 | > 30 |
| CCOC(=O)CC(SP(=S)(OC)OC)C(=O)OCC (centres undefined) [MALATHION] | > 30 | > 30 | > 30 | > 30 | > 30 | > 30 | > 30 |
| CC(=O)OC(C)C[N+](C)(C)C (centres undefined) [METHACHOLINE] | > 30 | > 30 | > 30 | > 30 | > 30 | > 30 | > 30 |
